Our source for the T/C values is PubChem BioAssay AID248 (DTP/NCI, 2004).

For this assay, the system named is L1210 leukemia ip in BDF1 mice, survival T/C. As to the kind of experiment: NCI In Vivo Anticancer Drug Screen. Data for tumor model L1210 Leukemia (intraperitoneal) in B6D2F1 (BDF1) mice. The conditions noted are these: endpoint: mean survival time, higher = longer survival. A digest of the protocol: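 Ratio derived from survival: compound-dosed mice over vehicle-dosed mice, all bearing a transplantable tumor.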

Where [1] appears, read: dose: 100.0 mg/kg/injection, schedule: Q01DX009 (ip), vehicle: Klucel (hydroxypropylcellulose) (HPC).
The mark [2] stands for this setting: dose: 200.0 mg/kg/injection, schedule: Q01DX009 (ip), vehicle: Klucel (hydroxypropylcellulose) (HPC).
The mark [3] stands for this setting: dose: 100.0 mg/kg/injection, schedule: Q01DX001 (ip), vehicle: saline.
[4] abbreviates: dose: 200.0 mg/kg/injection, schedule: Q01DX001 (ip), vehicle: saline.
Where [5] appears, read: dose: 400.0 mg/kg/injection, schedule: Q01DX001 (ip), vehicle: saline.

Where “and” joins values, the source holds several entries; their conditions need not be identical. Equal values may be shown once. Toxic doses and inconclusive results are not listed.

As to `CC(C)CCCC(C)C1CCC2C3CC(O)C45CC4CCC5(C)C3CCC12C` (configuration not stated), the T/C is 89 % of control (dose: 200.0 mg/kg/injection, schedule: Q04DX002 (ip), vehicle: Klucel (hydroxypropylcellulose) (HPC)) and 92 % of control (dose: 400.0 mg/kg/injection, schedule: Q04DX002 (ip), vehicle: Klucel (hydroxypropylcellulose) (HPC)).

With `CSc1ncc(C(N)=O)c(N)n1`, the T/C was 102 % of control (dose: 222.0 mg/kg/injection, schedule: Q01DX Z (ip), vehicle: saline); 89 % of control (dose: 333.0 mg/kg/injection, schedule: Q01DX Z (ip), vehicle: saline); 95 % of control (dose: 500.0 mg/kg/injection, schedule: Q01DX Z (ip), vehicle: saline).

As to `CC1(C)CC2(CC(C)(C)c3cc(O)c(O)cc32)c2cc(O)c(O)cc21`, the T/C is, setting by setting: under setting [1], 95 % of control; (dose: 100.0 mg/kg/injection, schedule: Q04DX003 (ip), vehicle: Klucel (hydroxypropylcellulose) (HPC)) 100 % of control; under setting [2], 100 % of control; (dose: 200.0 mg/kg/injection, schedule: Q04DX003 (ip), vehicle: Klucel (hydroxypropylcellulose) (HPC)) 105 % of control; (dose: 400.0 mg/kg/injection, schedule: Q01DX009 (ip), vehicle: Klucel (hydroxypropylcellulose) (HPC)) 104 % of control; (dose: 400.0 mg/kg/injection, schedule: Q04DX003 (ip), vehicle: Klucel (hydroxypropylcellulose) (HPC)) 102 % of control.

Take `O=C1c2ccccc2C(=O)c2c(NCCN3CCOCC3)ccc(NCCN3CCOCC3)c21`: the T/C was 96 % of control (dose: 87.5 mg/kg/injection, schedule: Q01DX009 (ip), vehicle: Klucel (hydroxypropylcellulose) (HPC)); 102 % of control (dose: 175.0 mg/kg/injection, schedule: Q01DX009 (ip), vehicle: Klucel (hydroxypropylcellulose) (HPC)); 107 % of control (dose: 350.0 mg/kg/injection, schedule: Q01DX009 (ip), vehicle: Klucel (hydroxypropylcellulose) (HPC)).

Turning to `O=c1c2ccccc2[nH]c2cc(Cl)ccc12`, the T/C (dose: 50.0 mg/kg/injection, schedule: Q01DX Z (ip), vehicle: carboxymethylcellulose (CMC)) was 109 % of control; the T/C (dose: 100.0 mg/kg/injection, schedule: Q01DX Z (ip), vehicle: carboxymethylcellulose (CMC)) was 103 % of control; the T/C (dose: 200.0 mg/kg/injection, schedule: Q01DX Z (ip), vehicle: carboxymethylcellulose (CMC)) was 97 % of control; the T/C (dose: 400.0 mg/kg/injection, schedule: Q01DX Z (ip), vehicle: carboxymethylcellulose (CMC)) is 115 % of control.

`COC1CC(O)C(O)C(C)O1` (configuration not stated): the T/C under setting [3] is 93 % of control; the T/C (dose: 100.0 mg/kg/injection, schedule: Q01DX009 (ip), vehicle: saline with Tween-80) is 100 % of control; the T/C (dose: 100.0 mg/kg/injection, schedule: Q04DX003 (ip), vehicle: saline with Tween-80) was 91 % of control; the T/C under setting [4] was 96 % of control; the T/C (dose: 200.0 mg/kg/injection, schedule: Q01DX009 (ip), vehicle: saline with Tween-80) was 91 % of control; the T/C (dose: 200.0 mg/kg/injection, schedule: Q04DX003 (ip), vehicle: saline with Tween-80) is 108 % of control. For the same compound, the T/C under setting [5] is 98 % of control; the T/C (dose: 400.0 mg/kg/injection, schedule: Q01DX009 (ip), vehicle: saline with Tween-80) is 89 % of control; the T/C (dose: 400.0 mg/kg/injection, schedule: Q04DX003 (ip), vehicle: saline with Tween-80) was 100 % of control.

For the compound `Cc1cc(/C=C/c2ccc(N(CCCl)CCCl)cc2)nc2ccccc12`, the T/C by setting is: under setting [3], 107 % of control; under setting [4], 113 % of control; under setting [5], 103 % of control.

On to `CS(=O)(=O)OCCCCCOS(C)(=O)=O`, for which the T/C is 97 % of control (dose: 5.0 mg/kg/injection, schedule: Q01DX001 (ip), vehicle: carboxymethylcellulose (CMC)); 101 % of control (dose: 6.0 mg/kg/injection, schedule: Q01DX015 (ip), vehicle: saline); 100 % of control (dose: 10.0 mg/kg/injection, schedule: Q01DX001 (ip), vehicle: carboxymethylcellulose (CMC)); 110 % of control (dose: 12.0 mg/kg/injection, schedule: Q01DX015 (ip), vehicle: saline); 100 % of control (dose: 20.0 mg/kg/injection, schedule: Q01DX001 (ip), vehicle: carboxymethylcellulose (CMC)); 101 % of control (dose: 40.0 mg/kg/injection, schedule: Q01DX001 (ip), vehicle: carboxymethylcellulose (CMC)). Moreover, the T/C (dose: 50.0 mg/kg/injection, schedule: Q01DX015 (ip), vehicle: saline) is 101 % of control.

Take `CCN(CC)CCSC(=O)C(O)(c1ccc(C)cc1)c1ccc(C)cc1`: the T/C runs as follows: (dose: 75.0 mg/kg/injection, schedule: Q01DX001 (ip), vehicle: other) 90 % of control; (dose: 150.0 mg/kg/injection, schedule: Q01DX001 (ip), vehicle: other) 96 % of control.

Consider `O=C(COc1cc(Cl)c(Cl)cc1Cl)Nc1ccccc1`, for which the T/C (dose: 100.0 mg/kg/injection, schedule: Q04DX002 (ip), vehicle: saline) is 92 % of control; the T/C (dose: 200.0 mg/kg/injection, schedule: Q04DX002 (ip), vehicle: saline) is 100 % of control; the T/C (dose: 400.0 mg/kg/injection, schedule: Q04DX002 (ip), vehicle: saline) was 103 % of control.

With `C/C(=N\O)C(C)(C)C`, the T/C reads like this: (dose: 25.0 mg/kg/injection, schedule: Q04DX002 (ip), vehicle: Klucel (hydroxypropylcellulose) (HPC)) 98 % of control; (dose: 50.0 mg/kg/injection, schedule: Q04DX002 (ip), vehicle: Klucel (hydroxypropylcellulose) (HPC)) 91 % of control; (dose: 100.0 mg/kg/injection, schedule: Q04DX002 (ip), vehicle: Klucel (hydroxypropylcellulose) (HPC)) 94 % of control and 103 % of control.

With `N/N=C(\N)NN`, the T/C is 102 % of control (dose: 15.0 mg/kg/injection, schedule: Q01DX Z (ip), vehicle: methylcellulose (MC)); 100 % of control (dose: 30.0 mg/kg/injection, schedule: Q01DX Z (ip), vehicle: methylcellulose (MC)); 102 % of control (dose: 60.0 mg/kg/injection, schedule: Q01DX Z (ip), vehicle: methylcellulose (MC)); 105 % of control (dose: 120.0 mg/kg/injection, schedule: Q01DX Z (ip), vehicle: methylcellulose (MC)); 114 % of control (dose: 240.0 mg/kg/injection, schedule: Q01DX Z (ip), vehicle: methylcellulose (MC)); 95 % of control (dose: 240.0 mg/kg/injection, schedule: Q01DX Z (oral), vehicle: methylcellulose (MC)). In addition, the T/C is 100 % of control (dose: 420.0 mg/kg/injection, schedule: Q01DX Z (oral), vehicle: methylcellulose (MC)); 103 % of control (dose: 480.0 mg/kg/injection, schedule: Q01DX Z (ip), vehicle: methylcellulose (MC)); 105 % of control (dose: 600.0 mg/kg/injection, schedule: Q01DX Z (oral), vehicle: methylcellulose (MC)); 119 % of control (dose: 720.0 mg/kg/injection, schedule: Q01DX Z (ip), vehicle: methylcellulose (MC)).

Turning to `CCOC(=O)c1ccc(NC(=O)Nc2cccc(F)c2)cc1`, the T/C under setting [1] was 101 % of control and the T/C under setting [2] was 100 % of control.

For `CCCCN1COC(OCC)C(C)(C)C1` (configuration not stated), the T/C (dose: 75.0 mg/kg/injection, schedule: Q01DX009 (ip), vehicle: saline) was 116 % of control; the T/C (dose: 150.0 mg/kg/injection, schedule: Q01DX009 (ip), vehicle: saline) was 113 % of control; the T/C (dose: 300.0 mg/kg/injection, schedule: Q01DX009 (ip), vehicle: saline) was 112 % of control.

In the case of `O=C(Nc1cccnc1)c1ccc([N+](=O)[O-])s1`, the T/C was 102 % of control (dose: 50.0 mg/kg/injection, schedule: Q01DX005 (ip), vehicle: saline); 117 % of control (dose: 100.0 mg/kg/injection, schedule: Q01DX005 (ip), vehicle: saline); 173 % of control (dose: 400.0 mg/kg/injection, schedule: Q01DX005 (ip), vehicle: saline).

Turning to `CCOC(=O)C(Cc1c[nH]c2cc(N(CCO)CCO)ccc12)(NC(C)=O)C(=O)OCC`, the T/C was 97 % of control under setting [3], 101 % of control under setting [4] and 98 % of control under setting [5].

`CC1=NN(c2cccc([N+](=O)[O-])c2)C(=O)C1`: the T/C is, setting by setting: (dose: 100.0 mg/kg/injection, schedule: Q01DX001 (ip), vehicle: saline with Tween-80) 96 % of control; (dose: 200.0 mg/kg/injection, schedule: Q01DX001 (ip), vehicle: saline with Tween-80) 96 % of control; (dose: 400.0 mg/kg/injection, schedule: Q01DX001 (ip), vehicle: saline with Tween-80) 98 % of control.

On to `COC(=O)c1ccc(OC(=O)Nc2ccc([N+](=O)[O-])cc2OC)cc1`, for which the T/C by setting is: (dose: 25.0 mg/kg/injection, schedule: Q01DX009 (ip), vehicle: Klucel (hydroxypropylcellulose) (HPC)) 96 % of control; (dose: 50.0 mg/kg/injection, schedule: Q01DX009 (ip), vehicle: Klucel (hydroxypropylcellulose) (HPC)) 101 % of control; under setting [1], 93 % of control and 100 % of control.
